Source: PMC10230575 (Bioorganic & medicinal chemistry letters, 2022)
Residue numbers refer to the chain shown, from its start.

target: T1, A934T Slack (Homo sapiens, UniProt Q5JUK3, A915T); assay: Tl+ flux assay in HEK-293 cells expressing A934T Slack; settings: Table 6; 30 µM test compound, % of maximum response for VU0606170
T1 sequence (Q5JUK3 1-1235 isoform Q5JUK3-3 A934T): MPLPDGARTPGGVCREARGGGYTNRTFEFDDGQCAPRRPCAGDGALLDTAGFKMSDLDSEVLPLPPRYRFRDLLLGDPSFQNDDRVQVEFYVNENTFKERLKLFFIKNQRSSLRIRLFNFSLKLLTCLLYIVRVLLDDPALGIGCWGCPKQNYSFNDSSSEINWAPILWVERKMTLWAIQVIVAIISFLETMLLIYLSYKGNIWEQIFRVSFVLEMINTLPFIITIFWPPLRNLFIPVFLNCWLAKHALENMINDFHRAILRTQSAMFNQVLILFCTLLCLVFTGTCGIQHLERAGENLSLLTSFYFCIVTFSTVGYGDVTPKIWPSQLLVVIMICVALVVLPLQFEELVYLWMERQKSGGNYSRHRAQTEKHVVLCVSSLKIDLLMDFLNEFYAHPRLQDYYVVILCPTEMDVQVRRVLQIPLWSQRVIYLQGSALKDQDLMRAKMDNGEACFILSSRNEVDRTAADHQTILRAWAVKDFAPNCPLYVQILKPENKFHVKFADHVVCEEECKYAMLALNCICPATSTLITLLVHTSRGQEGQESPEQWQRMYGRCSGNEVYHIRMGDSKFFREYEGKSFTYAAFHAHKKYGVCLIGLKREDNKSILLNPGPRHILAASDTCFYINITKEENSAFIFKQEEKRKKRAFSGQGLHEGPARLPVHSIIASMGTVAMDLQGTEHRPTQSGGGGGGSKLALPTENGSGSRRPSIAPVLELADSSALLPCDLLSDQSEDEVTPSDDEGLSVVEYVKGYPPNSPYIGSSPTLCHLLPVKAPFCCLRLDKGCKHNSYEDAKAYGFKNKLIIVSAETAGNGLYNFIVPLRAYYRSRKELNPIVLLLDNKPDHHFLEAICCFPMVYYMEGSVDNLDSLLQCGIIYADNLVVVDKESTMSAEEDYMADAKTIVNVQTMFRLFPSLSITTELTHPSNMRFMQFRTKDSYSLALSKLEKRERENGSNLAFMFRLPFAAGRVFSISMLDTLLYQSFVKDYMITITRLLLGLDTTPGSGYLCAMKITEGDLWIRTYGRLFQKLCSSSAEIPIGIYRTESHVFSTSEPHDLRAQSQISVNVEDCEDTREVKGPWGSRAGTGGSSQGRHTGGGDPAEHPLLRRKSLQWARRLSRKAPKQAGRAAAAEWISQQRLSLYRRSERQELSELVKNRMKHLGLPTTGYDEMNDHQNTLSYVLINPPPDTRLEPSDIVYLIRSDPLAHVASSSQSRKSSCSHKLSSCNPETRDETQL

Row | A934T Efficacy [%] | SMILES
1 | 100 | COc1ccc(F)cc1NC(=O)CN1CCN(S(=O)(=O)N2CCC(C)CC2)CC1 [Compound 24]

target: T2, wild-type human (WT) Slack (Homo sapiens, UniProt Q5JUK3); assay: Tl+ flux assay in HEK-293 cells stably expressing WT Slack; type: cell-based; settings: Table 1; CRC, Tl+ flux, HEK-293 WT Slack; Mode Inh
T2 sequence (Q5JUK3 1-1235 isoform Q5JUK3-3): T1 sequence (Q5JUK3 1-1235 isoform Q5JUK3-3 A934T) with T934A

Row | IC50 / EC50 (IC50, inhibitors) [µM] | SMILES
2 | 2.4 | COc1ccc(Cl)cc1NC(=O)CN1CCN(S(=O)(=O)N2CCC(C)CC2)CC1 [Compound 4]

same assay, conditions: Table 3; no mode assigned

Row | IC50 / EC50 (result in words) | SMILES
3 | inactive | COc1ccc(Cl)cc1NC(=O)CN1CCN(S(=O)(=O)N2CCN(S(=O)(=O)c3ccc(C)cc3)CC2)CC1 [Compound 47]
4 | inactive | COc1ccc(Cl)cc1NC(=O)CN1CCN(S(=O)(=O)N2CCN(S(=O)(=O)N3CCCCC3)CC2)CC1 [Compound 43]
5 | inactive | COc1ccc(Cl)cc1NC(=O)CN1CCN(S(=O)(=O)N2CCN(S(=O)(=O)N3CCOCC3)CC2)CC1 [Compound 44]
6 | inactive | COc1ccc(Cl)cc1NC(=O)CN1CCN(S(=O)(=O)N2CCN(S(=O)(=O)C3CCCCC3)CC2)CC1 [Compound 45]

same assay, conditions: running text and footnotes; WT Slack Tl+ flux

Row | Slack activity profile in words | SMILES
7 | weak inhibitor | CCCC1CCN(C(=O)N2CCN(S(=O)(=O)N3CCN(CC(=O)Nc4cc(Cl)ccc4OC)CC3)CC2)CC1 [Compound 52]
8 | not effective | Cc1ccc(Cl)cc1NC(=O)CN1CCN(S(=O)(=O)N2CCC(C)CC2)CC1 [Compound 31]
9 | weak inhibitor | COc1ccc(Cl)cc1NC(=O)N1CC2(C1)CN(S(=O)(=O)N1CCC(C)CC1)C2 [Compound 90]
10 | weak activators | COc1ccc(Cl)cc1NC(=O)CN1CCN(S(=O)(=O)N2CCN(C(=O)N3CCCCCC3)CC2)CC1 [Compound 55]
11 | mixed profile | COc1cccc(NC(=O)CN2CCN(S(=O)(=O)N3CCC(C)CC3)CC2)c1 [Compound 22]
12 | not effective | CC1CCN(S(=O)(=O)N2CCN(CC(=O)Nc3cc(Cl)ccc3F)CC2)CC1 [Compound 29]
13 | devoid of activity | COc1ccc(Cl)cc1NC(=O)N1C[C@@H]2CN(S(=O)(=O)N3CCC(C)CC3)C[C@@H]2C1 [Compound 91]
14 | mixed profile | Cc1ccccc1NC(=O)CN1CCN(S(=O)(=O)N2CCC(C)CC2)CC1 [Compound 18]
15 | weak activators | COc1ccc(Cl)cc1NC(=O)CN1CCN(S(=O)(=O)N2CCN(C(=O)N3CCCCC3)CC2)CC1 [Compound 51]
16 | mixed profile | COc1ccc(Cl)cc1NC(=O)CN1CCN(S(=O)(=O)N2CCN(C(=O)N3CCC(C(C)C)CC3)CC2)CC1 [Compound 53]
17 | mixed profile | Cc1cccc(NC(=O)CN2CCN(S(=O)(=O)N3CCC(C)CC3)CC2)c1 [Compound 19]
18 | mixed profile | CC1CCN(S(=O)(=O)N2CCN(CC(=O)Nc3ccccc3Cl)CC2)CC1 [Compound 15]
19 | equipotent to hit compound 4 | COc1ccc(Cl)cc1NC(=O)CN1CCN(S(=O)(=O)N2CCC(C)CC2)C[C@H]1C [Compound 87]
20 | moderately potent | COc1ccc(Cl)cc1NC(=O)N1CCCN(S(=O)(=O)N2CCC(C)CC2)CC1 [Compound 92]
21 | weak activators | COc1ccc(Cl)cc1NC(=O)CN1CCN(S(=O)(=O)N2CCN(S(=O)(=O)N3CCC(F)(F)C3)CC2)CC1 [Compound 50]
22 | significantly reduced potency | COc1ccc(Cl)cc1NC(=O)CN1CCN(S(=O)(=O)N2CCC(C)CC2)[C@@H](C)C1 [Compound 68]
23 | significantly reduced potency | COc1ccc(Cl)cc1NC(=O)CN1CCN(S(=O)(=O)N2CCC(C)CC2)[C@H](C)C1 [Compound 86]
24 | weak activators | COc1ccc(Cl)cc1NC(=O)N1CC2(CCN(S(=O)(=O)N3CCC(C)CC3)CC2)C1 [Compound 88]
25 | maintained the inhibitory profile | COc1ccccc1NC(=O)CN1CCN(S(=O)(=O)N2CCC(C)CC2)CC1 [Compound 21]
26 | not effective | CC1CCN(S(=O)(=O)N2CCN(CC(=O)Nc3cc(Cl)ccc3Cl)CC2)CC1 [Compound 30]

Row | SMILES | Slack activity profile in words
27 | COc1ccc(Cl)cc1NC(=O)CN(C)CCN(C)S(=O)(=O)N1CCC(C)CC1 [Compound 81] | retained inhibitory activity but exhibited reduced potency
28 | COc1ccc(Cl)cc1NC(=O)CN1CCN(S(=O)(=O)N2CCC(C)CC2)C[C@@H]1C [Compound 71] | well tolerated

system: mouse model of Kcnt1 GOF; assay: not given; settings: orally available; cited from earlier work

Row | SMILES | EEG phenotype
29 | C[C@H](NC(=O)c1cc(C(F)(F)F)nn1C)c1nc(-c2ccnc(C(F)(F)F)c2)no1 [Compound 3] | normalizes the EEG phenotype

system: human wild-type (WT) Slack channels; assay: not given; settings: whole-cell patch clamp, HEK-293, human WT Slack; cited from earlier work

Row | SMILES | IC50 [µM]
30 | Cc1cccc(CC(=O)Nc2cnn(-c3cccc(C(=O)NCc4ccccc4-n4cncn4)c3)c2)c1 [Compound 1] | 3.2

target: Maxi-K (Slo1 α1/β3) (Homo sapiens, UniProt Q12791); assay: Tl+ flux assay in HEK-293 cells expressing Maxi-K; type: cell-based; settings: 30 µM test compound, % of maximum response for paxilline
Sequence (Q12791 whole entry, species assumed): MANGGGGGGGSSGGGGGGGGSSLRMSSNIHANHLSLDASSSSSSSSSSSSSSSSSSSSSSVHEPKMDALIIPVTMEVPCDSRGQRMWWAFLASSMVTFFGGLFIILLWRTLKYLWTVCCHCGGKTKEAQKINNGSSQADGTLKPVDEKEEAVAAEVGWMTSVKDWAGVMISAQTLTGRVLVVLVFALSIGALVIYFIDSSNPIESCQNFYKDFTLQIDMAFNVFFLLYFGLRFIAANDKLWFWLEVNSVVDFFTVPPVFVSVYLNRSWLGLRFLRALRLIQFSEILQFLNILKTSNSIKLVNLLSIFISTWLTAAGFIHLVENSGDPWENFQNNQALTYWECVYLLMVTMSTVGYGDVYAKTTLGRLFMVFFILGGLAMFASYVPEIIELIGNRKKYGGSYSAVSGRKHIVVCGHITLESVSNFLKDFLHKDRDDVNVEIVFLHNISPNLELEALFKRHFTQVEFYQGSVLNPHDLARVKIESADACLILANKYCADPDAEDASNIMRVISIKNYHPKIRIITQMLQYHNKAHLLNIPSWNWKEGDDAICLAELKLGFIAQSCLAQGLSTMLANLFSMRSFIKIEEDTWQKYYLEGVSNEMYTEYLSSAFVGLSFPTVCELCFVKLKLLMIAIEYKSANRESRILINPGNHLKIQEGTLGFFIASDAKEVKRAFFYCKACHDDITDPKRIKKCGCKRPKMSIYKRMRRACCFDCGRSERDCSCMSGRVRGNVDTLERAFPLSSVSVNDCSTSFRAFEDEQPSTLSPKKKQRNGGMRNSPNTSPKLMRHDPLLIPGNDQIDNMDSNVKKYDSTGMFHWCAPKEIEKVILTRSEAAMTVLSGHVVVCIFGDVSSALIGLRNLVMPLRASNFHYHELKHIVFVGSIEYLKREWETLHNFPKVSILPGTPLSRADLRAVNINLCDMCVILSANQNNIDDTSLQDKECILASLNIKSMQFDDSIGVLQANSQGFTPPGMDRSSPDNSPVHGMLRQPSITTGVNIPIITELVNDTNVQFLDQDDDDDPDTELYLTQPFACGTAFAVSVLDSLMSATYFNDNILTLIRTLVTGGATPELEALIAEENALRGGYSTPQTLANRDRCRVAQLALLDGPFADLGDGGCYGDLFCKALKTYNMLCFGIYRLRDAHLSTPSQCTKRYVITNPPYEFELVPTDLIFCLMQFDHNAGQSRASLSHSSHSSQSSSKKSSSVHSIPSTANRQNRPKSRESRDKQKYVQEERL
Sequence (Q9NPA1 whole entry partner, species assumed): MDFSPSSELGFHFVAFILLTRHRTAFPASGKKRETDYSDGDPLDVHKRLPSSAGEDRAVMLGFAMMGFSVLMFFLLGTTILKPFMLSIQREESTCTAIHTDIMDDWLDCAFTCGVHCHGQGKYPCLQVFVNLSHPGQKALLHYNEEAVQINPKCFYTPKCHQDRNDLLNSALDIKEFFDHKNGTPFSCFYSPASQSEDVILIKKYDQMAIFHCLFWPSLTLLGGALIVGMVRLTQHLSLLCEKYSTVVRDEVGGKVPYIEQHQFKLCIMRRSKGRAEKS

Row | Maxi-K (Slo1 α1/β3) Efficacy | SMILES
31 | inactive | COc1ccc(Cl)cc1NC(=O)[C@H](C)N1CCN(S(=O)(=O)N2CCC(C(F)(F)F)CC2)CC1 [Compound 61]
32 | inactive | COc1ccc(Cl)cc1NC(=O)CN1CCN(S(=O)(=O)N2CCC(C)CC2)CC1 [Compound 4]

same assay, conditions: CRC, Tl+ flux, HEK-293 expressing Maxi-K

Row | Maxi-K (Slo1 α1/β3) IC50 | SMILES
33 | inactive | COc1ccc(Cl)cc1NC(=O)[C@H](C)N1CCN(S(=O)(=O)N2CCC(C(F)(F)F)CC2)CC1 [Compound 61]
34 | inactive | COc1ccc(Cl)cc1NC(=O)CN1CCN(S(=O)(=O)N2CCC(C)CC2)CC1 [Compound 4]

same assay, conditions: Tl+ flux

Row | Maxi-K inhibition in words | SMILES
35 | inactive | COc1ccc(Cl)cc1NC(=O)[C@H](C)N1CCN(S(=O)(=O)N2CCC(C(F)(F)F)CC2)CC1 [Compound 61]
36 | weak inhibition | COc1ccc(Cl)cc1NC(=O)CN1CCN(S(=O)(=O)N2CCC(C)CC2)C[C@H]1C [Compound 87]
37 | weak inhibition | COc1ccc(C(F)(F)F)cc1NC(=O)CN1CCN(S(=O)(=O)N2CCC(C)CC2)CC1 [Compound 27]

system: cortical neuronal culture; assay: not given; settings: overexcited, spontaneously firing cortical neuronal culture; cited from earlier work

Row | SMILES | firing rate
38 | COc1ccc(Cl)cc1NC(=O)CN1CCN(S(=O)(=O)N2CCC(C)CC2)CC1 [Compound 4] | decreased the firing rate
